# Results: the supplement of paper PMC13380429
# Structures can show the parent of a compound that is named as a salt. ± gives the standard deviation of the averaged measurements.
# How the values were obtained:
# Conditions in all cases: 72 h
# [1] = tested on: U2OS; assay: relative viability EC50 (midpoint between 100% and the lowest measured viability); higher = less toxic
# [2] = tested on: Vero E6; assay: as above
# [3] = tested on: Caco-2; assay: as above
# [4] = tested on: HepG2; assay: as above
# [5] = tested on: Calu-3; assay: as above
# [6] = tested on: U2OS; assay: drug sensitivity score (DSS) for viability; higher = more toxic; extreme values may be limits of the assay
# [7] = tested on: Vero E6; assay: as above
# [8] = tested on: Caco-2; assay: as above
# [9] = tested on: HepG2; assay: as above
# [10] = tested on: Calu-3; assay: as above
# [11] = tested on: U2OS; assay: cell viability relative to DMSO; higher = less toxic
# [12] = tested on: Vero E6; assay: as above
# [13] = tested on: Caco-2; assay: as above
# [14] = tested on: HepG2; assay: as above
# [15] = tested on: Calu-3; assay: as above
Compound,relative viability EC50 [1] [µM],relative viability EC50 [2] [µM],relative viability EC50 [3] [µM],relative viability EC50 [4] [µM],relative viability EC50 [5] [µM],drug sensitivity score [6],drug sensitivity score [7],drug sensitivity score [8],drug sensitivity score [9],drug sensitivity score [10],cell viability ([11]; 1 nM) [%],cell viability ([11]; 10 nM) [%],cell viability ([11]; 100 nM) [%],cell viability ([11]; 1000 nM) [%],cell viability ([11]; 10000 nM) [%],cell viability ([12]; 1 nM) [%],cell viability ([12]; 10 nM) [%],cell viability ([12]; 100 nM) [%],cell viability ([12]; 1000 nM) [%],cell viability ([12]; 10000 nM) [%],cell viability ([13]; 1 nM) [%],cell viability ([13]; 10 nM) [%],cell viability ([13]; 100 nM) [%],cell viability ([13]; 1000 nM) [%],cell viability ([13]; 10000 nM) [%],cell viability ([14]; 1 nM) [%],cell viability ([14]; 10 nM) [%],cell viability ([14]; 100 nM) [%],cell viability ([14]; 1000 nM) [%],cell viability ([14]; 10000 nM) [%],cell viability ([15]; 1 nM) [%],cell viability ([15]; 10 nM) [%],cell viability ([15]; 100 nM) [%],cell viability ([15]; 1000 nM) [%],cell viability ([15]; 10000 nM) [%]
CCC[C@@H]1C[C@@H](C(=O)N[C@@H]([C@H]2O[C@H](SC)[C@H](O)[C@@H](O)[C@H]2O)[C@H](C)Cl)N(C)C1 [CLINDAMYCIN HYDROCHLORIDE],> 10,> 10,> 10,> 10,> 10,0,0,0,0,0,97.6,102,99.2,105,103,95.3,89.8,93.8,91.2,104,95.6,95.7,95.3,108,108,103,93,104,100,97.6,100,96.7,98.9,102,102
Cn1cnnc1Sc1c([N+](=O)[O-])ncn1C [MNITMT],> 10,> 10,> 10,> 10,> 10,0,0.1,0,0,1.7,102,97.7,99.5,97.4,98.4,105,99.3,99.2,97.5,88.7,99.9,96.3,104,94.2,95.8,100,99.9,93.1,94.1,99.7,100,111,94.9,85.5,92.2
Nc1cc(C(F)(F)F)c(-c2nc(N3CCOCC3)nc(N3CCOCC3)n2)cn1 [PI3K-IN-2],2.07,1.12,1.12,0.935,0.376,5.9,7.8,9.1,9.1,12.4,103,106,99,89.7,24.5,106,106,105,70,30,107,106,97.7,63.3,17.1,124,106,101,59.4,25.1,88.3,102,78.1,48,21.4
CNC(=O)[C@H](Cc1c[nH]c2ccccc12)NC(=O)[C@@H](CC(=O)NO)CC(C)C [ilomastat],> 10,> 10,> 10,> 10,> 10,0,0,0,0,0,97.6,98.2,85.8,102,84.7,97.4,97,95,93.2,88.7,94.1,104,102,96.6,102,107,90.5,104,90.5,103,102,98.6,107,97.3,90.4
O=C(O)c1cccnc1Nc1cccc(C(F)(F)F)c1 [niflumic-acid],> 10,> 10,> 10,> 10,> 10,0,0,0,0,0,99.7,98,104,106,102,100,96,97.4,97.3,101,108,98.5,98.4,96.2,100,103,101,99.6,97.2,104,100,90.9,98.7,99.7,95.2
O=[N+]([O-])c1ccc2c(c1)S(=O)(=O)C=C2 [stattic],2.69,2.79,2.3,3.29,3.99,6.4,6.1,6.1,5.4,3.2,99.1,95.6,98.6,94,0.6,95.8,99,99.1,95.3,2.5,97.6,90.3,99,91.2,16.1,96.3,95.7,107,102,-0.2,107,95.2,97.7,117,27.3
CCCN[C@H]1CCc2nc(N)sc2C1 [pramipexole],> 10,> 10,> 10,> 10,> 10,0,0,0,0,0,96.2,98.2,95.5,98.6,103,104,104,105,99,101,97.3,103,99.7,96.8,107,88.2,90.8,109,99.3,108,91.7,111,107,102,110
O=S(=O)(c1ccccc1)c1cnc2c(N3CCNCC3)cccc2c1,> 10,> 10,> 10,> 10,> 10,0,0,0,0,0,102,96.8,102,99,97,93.3,97.4,95,97.3,106,95.9,101,102,94.8,101,93.8,105,97.1,108,87.2,90.2,96.5,104,96.7,98.4
CN1CCN(c2ccc3[nH]c(-c4ccc5[nH]c(-c6ccc(O)cc6)nc5c4)nc3c2)CC1 [pibenzimol],> 10,> 10,> 10,0.35,> 10,0,0,0,8.8,0,103,97.2,101,100,93.8,100,100,96,98.9,98.3,98.6,88.8,98,100,103,101,97.4,81.2,64.1,42.7,108,93.8,106,116,122
Cc1ccccc1CN1C(=O)C2=C(CCN(Cc3ccccc3)C2)N2CCN=C12 [ONC201],3.64,3.35,3.72,2.39,> 10,2.8,3.5,2.5,6.3,0.6,100,102,95.4,106,41.1,110,101,103,102,32.2,108,106,93.4,107,44.1,108,93.7,104,91.6,10.3,103,103,102,106,75.7
CN1C(=O)N(c2ccc(C#N)c(C(F)(F)F)c2)C(=O)[C@]1(CO)c1ccccc1 [GLPG0492-R-enantiomer],> 10,> 10,> 10,> 10,> 10,0,0,0,0,0,101 ± 4.5,104 ± 3.9,99 ± 1.3,101 ± 5.1,97.5 ± 4.2,96.6 ± 0.28,101 ± 2.3,96.7 ± 4.3,97 ± 0.99,94.3 ± 8.8,96.1 ± 13,99.5 ± 4.8,94.4 ± 5.4,96 ± 7.1,93.7 ± 7.5,102 ± 8.3,103 ± 2.5,102.8 ± 0.78,100 ± 5.1,102 ± 3.8,95.9 ± 3.8,109 ± 4.2,106 ± 3.9,105 ± 2.9,110 ± 15
COCC1(CO)C(=O)C2CCN1CC2 (stereo not given) [APR-246],> 10,> 10,> 10,> 10,> 10,0,0,0,0,0,100,94.9,99.8,96.3,99.5,97.1,99.3,96.6,97.8,93.1,99.5,94.7,95.1,94.2,94.6,93,99.7,96.6,112,91.8,96.7,87.5,111,90.4,94.5
CC(C)(C)c1cc(C(C)(C)C)c2c(c1)C(O)(C(F)(F)F)C(=O)O2 (racemic) [rac-BHFF],> 10,> 10,> 10,> 10,> 10,0,0,0,0,0,100,96.8,103,99.1,108,99,103,99.3,103,99,94.3,91.8,87.4,93,94.6,92.4,105,98.2,104,91.8,95.9,93.4,94.8,93.2,106
CC1(C)CCC(C)(C)c2cc(C3(c4ccc(C(=O)O)cc4)OCCO3)ccc21 [BMS-649],> 10,> 10,> 10,> 10,> 10,0,0,0,0,0,95.2,98.4,101,103,99,96,97.6,100,92.4,97.8,92.7,95.5,93.1,100,101,109,87.6,113,108,103,96.7,99,100,91.5,109
O=C(O)Cn1c2c(c3cc(F)ccc31)CN(C(=O)c1cccc3ccccc13)CC2 [setipiprant],> 10,> 10,> 10,> 10,> 10,0,0,0,0,0.2,101,105,102,104,98.4,94.2,102,97.3,99.9,102,91,103,103,95,99.1,98,96.3,108,101,102,91.9,115,93.1,98.7,86.5
C[N+]1(C)[C@@H]2CC[C@H]1C[C@@H](OC(=O)C(CO)c1ccccc1)C2 (stereo not given in full) [methylatropine-nitrate],> 10,> 10,> 10,> 10,> 10,0,0,0,0,0,95.4,95.4,100,100,101,95.6,98.8,95.3,99.1,104,96.9,93.4,108,104,99.6,96.7,105,102,98.7,99.8,93,100,108,97.2,106
Cc1ccc(O)c([C@H](CCN(C(C)C)C(C)C)c2ccccc2)c1 [tolterodine],> 10,> 10,> 10,> 10,> 10,0,0,0,0,0.8,99.9,94.4,99.9,98.7,96.1,105,99.8,102,103,96.9,102,89.6,98.5,85.9,108,115,98.5,102,105,92.7,99.7,94.1,88.6,88.6,95.8
CC(N)Cc1ccc(O)cc1 (stereo not given) [hydroxyamphetamine],> 10,> 10,> 10,> 10,> 10,0,0,0,0,0,98.6,101,96.2,102,94.5,99.9,102,99.4,95.1,104,107,92.8,94.2,98.7,99.5,102,103,93.4,93.7,96,92.5,94.4,98.7,100,107
CC(C)(C)/[N+]([O-])=C/c1ccc(S(=O)(=O)O)cc1S(=O)(=O)O [NXY-059],> 10,> 10,> 10,> 10,> 10,0,0,0,0,0,94.6,100,93.4,98.7,106,99.1,105,106,105,101,98.5,101,96.5,105,97.5,101,94.4,102,100,96.8,91.3,97,98.4,95,95.8
Cc1c(NC(=O)c2cccnc2)c(=O)n(-c2ccccc2)n1C [nifenazone],> 10,> 10,> 10,> 10,> 10,0,0,0,0,0,98.3,104,102,105,101,105,101,99.3,101,97.2,110,98.7,93.2,97.1,89.4,105,91.9,109,94.4,90.6,106,106,92.3,100,106
CCC(=O)N1CCOc2c(cc(-c3ccc(OC)c(OC)c3)cc2OC[C@H]2CCCN(C)C2)C1 [I-CBP-112],> 10,> 10,> 10,> 10,> 10,0,0.5,0,0.1,0.3,98.5,92,95.5,95.3,97.8,105,102,97.2,105,78.4,101,99.9,103,98.6,94.7,96.6,107,87.5,104,86,96.6,95,99.5,95.9,87.4
CC1(C)O[C@@H]2C[C@H]3[C@@H]4C[C@H](F)C5=CC(=O)C=C[C@]5(C)[C@H]4[C@@H](O)C[C@]3(C)[C@]2(C(=O)CO)O1 [flunisolide],> 10,> 10,> 10,> 10,> 10,0,0,1,0,0.2,102,93.9,91.4,93.8,94.7,96.6,97.6,95.3,94.2,102,105,103,91.5,87.7,98.5,105,104,97.3,97.3,99.2,98.5,96.1,101,94.5,88.5
